Holding throughout (test): biochemical
One experiment concerns the target DR1 (DRB1*0101) (Homo sapiens, UniProt P01903+P01911, A100R/D57E/F55L/F60I/F76Y/I96L/L162R/M171V/P40L/Q125E/R42F/V115G/Y59C). Type of experiment: binding.
The target of another experiment is DR4w4 (DRB1*0401) (Homo sapiens, UniProt P01903+P01911, A100K/A169T/F76Y/I96L/K127E/L162R/M171V/N62H/P40V/Q125Y/R42H/S133A/S149N/S66Y/V115G/V209L/W38E). It is filed as binding.
For a further experiment, the target named is DRB1*0301 (Homo sapiens, UniProt P01903+P01911, A100K/A102G/A103R/A169T/F55Y/I96L/K41T/L162R/M171V/P40S/Q125H/Q178H/Q39Y/R42S/S66N/T106N/T262R/W38E/Y61H). Type of experiment: binding.
Sequence of DRB1*0301 (P01903 26-254 limits assumed, other chains not shown): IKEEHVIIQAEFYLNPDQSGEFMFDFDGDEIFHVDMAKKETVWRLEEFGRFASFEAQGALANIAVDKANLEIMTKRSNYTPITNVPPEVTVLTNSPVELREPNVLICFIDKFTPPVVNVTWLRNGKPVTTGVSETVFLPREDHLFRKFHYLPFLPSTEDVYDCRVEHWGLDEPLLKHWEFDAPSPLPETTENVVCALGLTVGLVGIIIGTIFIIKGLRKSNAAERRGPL
In the next experiment the target is DRB1*0405 (Homo sapiens, UniProt P01903+P01911, A100R/A169T/D86S/F76Y/I96L/K127E/L162R/M171V/N62H/P40V/Q125Y/R42H/S133A/S149N/S66Y/V115G/V209L/W38E). Type of experiment: binding.
Another experiment has as its target DRB1*0901 (Homo sapiens, UniProt P01903+P01911, A100R/A103E/D57H/D86V/F55Y/F60I/F76Y/I96F/K127E/L162R/M171V/P40D/Q125H/Q99R/R33Q/R42F/S133A/S66N/T210M/V115G/W38K/Y107V/Y59G/Y89S). It is filed as binding.
Another experiment deals with DRB1*1201 (Homo sapiens, UniProt P01903+P01911, A100R/A169T/D57E/D86V/F55L/H45Y/K41T/L162R/M171V/P40S/Q125H/Q178H/Q39Y/Q99D/R42G/S66L/T262R/V114A/V67L/W38E/Y59H/Y61H/Y89S). It is filed as binding.
A further experiment addresses DRB1*1302 (Homo sapiens, UniProt P01903+P01911, A100E/A169T/K41T/L162R/M171V/P40S/Q125H/Q178H/Q39Y/Q99D/R42S/S66N/T262R/V115G/W38E/Y61H). It is filed as binding.
In a further experiment the target is DRB4*0101 (Homo sapiens, UniProt P01903+P13762, G164S). Type of experiment: binding.
The next experiment addresses DRB1*1101 (Homo sapiens, UniProt P01903+P01911, A100R/A169T/A87E/I96F/K41T/L162R/M171V/P40S/Q125H/Q178H/Q39Y/Q99D/R42S/S66Y/T262R/V115G/W38E). The following applies: Binding affinity DRB1 *1101.
In another experiment the target is DRB5*0101 (Homo sapiens, UniProt P01903+Q30154). The following applies: Binding affinity DRB5 *0101.
For another experiment, the target named is DR7 (DRB1*0701) (Homo sapiens, UniProt P01903+P01911, A100R/A102G/A103Q/D57E/D86V/E43K/F76Y/K127E/L162R/M171V/P40G/Q125H/Q99D/R33Q/R42Y/R54Q/S133A/S66F/T210M/V115G/Y107V/Y59L/Y89S). It is filed as binding.
Another experiment addresses DRB1*0802 (Homo sapiens, UniProt P01903+P01911, A100R/A103L/A169T/F76Y/H45Y/I96F/K41T/L162R/M171V/P40S/Q125H/Q178H/Q39Y/Q99D/R218S/R42G/S66Y/V115G/W38E). It is filed as binding.
The target in a further experiment is DRB1*1501 (Homo sapiens, UniProt P01903+P01911). It is filed as binding.

The text below walks through data of patent publication US9340577B2, “HLA binding motifs and peptides and their uses” (priority 1992, dated 2016).

No end group written: not given here.

Sequence of DRB1*1302 (P01903 26-254 limits assumed, other chains not shown): as above
Sequence of DRB1*1101 (P01903 26-254 limits assumed, other chains not shown): as above

For `CC[C@H](C)[C@H](NC(=O)[C@H](Cc1c[nH]cn1)NC(=O)[C@H](C)NC(=O)[C@H](Cc1ccc(O)cc1)NC(=O)[C@H](CC(C)C)NC(=O)[C@@H](NC(=O)[C@H](C)NC(=O)[C@@H]1CCCN1C(=O)[C@H](CCCCN)NC(=O)[C@@H](NC(=O)[C@H](CC(C)C)NC(=O)[C@@H](NC(=O)[C@H](CCCCN)NC(=O)[C@@H](N)Cc1ccccc1)[C@@H](C)O)[C@@H](C)CC)[C@@H](C)O)C(=O)N[C@@H](CCC(N)=O)C(=O)O` [Peptide 89.0082], the IC50 (usually the concentration needed to halve the response being measured) against DR1 (DRB1*0101) was found to be 23 nM; at DR4w4 (DRB1*0401), 123 nM; against DRB1*0301 it was 825 nM; against DRB1*0405, 14 nM; on DRB1*0901 it was 570 nM; on DRB1*1201 it was 84 nM. In addition, the IC50 against DRB1*1302 stood at 45 nM; on DRB4*0101 it was 20 nM; on DRB1*1101, 5.5 nM; on DRB5*0101, 2430 nM.

For the compound WQLIRLENAILFTAR [Peptide 90.0211], the IC50 against DR1 (DRB1*0101) came out at 4.1 nM; against DR7 (DRB1*0701), 89 nM; at DRB1*0301 it was 41 nM; on DRB1*0405, 308 nM; against DRB1*0802, 1840 nM; against DRB1*0901, 2270 nM. The IC50 on DRB1*1201 was determined as 99 nM; on DRB1*1302, 2.7 nM; on DRB1*1501, 44 nM; against DRB4*0101, 20 nM; on DRB5*0101, 445 nM.

On to MLAVFKDTYGLSFTD [Peptide 90.0050], for which the IC50 against DR4w4 (DRB1*0401) was 829 nM; against DRB1*0301, 45 nM; against DRB1*0405, greater than 20000 nM; against DRB1*0802, 7940 nM; against DRB1*0901 it was 1570 nM; against DRB1*1201 it was 7430 nM. In addition, the IC50 against DRB1*1302 was 1240 nM; at DRB4*0101, greater than 20000 nM; on DRB1*1101, 2290 nM; at DRB5*0101, 18300 nM.

As for KNRLTVAKLMSNLLS [Peptide 89.0064], the half-maximal inhibitory concentration (IC50) at DR1 (DRB1*0101) was found to be 5.6 nM; against DR4w4 (DRB1*0401) it was 21 nM; against DR7 (DRB1*0701), 2.8 nM; at DRB1*0301, 9720 nM; against DRB1*0405, 12 nM; at DRB1*0802, 580 nM. Moreover, the IC50 on DRB1*0901 was determined as 2680 nM; against DRB1*1201, 89 nM; on DRB1*1302, 14 nM; against DRB4*0101 it was 25 nM; at DRB1*1101, 1580 nM.

For AKALQAIELQMMLET [Peptide 89.0171], the IC50 at DR1 (DRB1*0101) is 16 nM; on DR4w4 (DRB1*0401), 78 nM; at DR7 (DRB1*0701), 51 nM; against DRB1*0301, 1460 nM; against DRB1*0405, 798 nM; on DRB1*0802 it was greater than 20000 nM. For the same compound, the IC50 at DRB1*0901 turned out to be 84 nM; against DRB1*1201, 243 nM; against DRB1*1501, 8480 nM; at DRB4*0101, 2550 nM; at DRB1*1101, 2400 nM; at DRB5*0101, 284 nM.

Regarding IIHLKGDANILKCLR [Peptide 90.0197], the IC50 against DR1 (DRB1*0101) was found to be 69 nM; on DR4w4 (DRB1*0401), 64 nM; against DR7 (DRB1*0701), 3050 nM; on DRB1*0301, 26 nM; on DRB1*0405, 6500 nM; at DRB1*0802, 2990 nM. In addition, the IC50 on DRB1*0901 is 14100 nM; on DRB1*1201, 5030 nM; against DRB1*1302, 66 nM; against DRB4*0101, 713 nM; on DRB5*0101 it was 2460 nM.

As to WKLIRMECAIMYTAR [Peptide 90.0245], the IC50 at DR4w4 (DRB1*0401) amounted to 328 nM; on DR7 (DRB1*0701), 4610 nM; at DRB1*0301, 203 nM; on DRB1*0405, 768 nM; at DRB1*0802, 9170 nM; at DRB1*0901, 4870 nM. For the same compound, the IC50 against DRB1*1201 was found to be 195 nM; at DRB1*1501, 2110 nM; against DRB4*0101, 27 nM; at DRB5*0101, 1240 nM.

For the compound LKAICIEKQSRAAKR [Peptide 90.0032], the IC50 against DR1 (DRB1*0101) is 259 nM; against DR4w4 (DRB1*0401), 307 nM; against DRB1*0301 it was 21 nM; on DRB1*0405, greater than 20000 nM; against DRB1*0802 it was 273 nM; on DRB1*0901, 13400 nM. The IC50 against DRB1*1201 is 11800 nM; against DRB1*1501 it was 2060 nM; against DRB4*0101 it was 29 nM; on DRB1*1101, 545 nM.

Consider GKSYFGMSLIQFLKG [Peptide 89.0075], for which the IC50 against DR1 (DRB1*0101) worked out at 14 nM; on DR4w4 (DRB1*0401), 456 nM; against DRB1*0301, 8830 nM; at DRB1*0405 it was 1310 nM; against DRB1*0802, 1560 nM; against DRB1*0901, 73 nM. Further, the IC50 against DRB1*1201 is 499 nM; against DRB4*0101, 372 nM; on DRB1*1101, 2960 nM; at DRB5*0101, 411 nM.

In the case of LLEFIDDSMENSIQA [Peptide 90.0077], the IC50 on DR1 (DRB1*0101) is 500 nM; at DR7 (DRB1*0701) it was greater than 20000 nM; at DRB1*0301 it was 518 nM; against DRB1*0405, 534 nM; against DRB1*0802 it was greater than 20000 nM; at DRB1*0901, 6680 nM. Further, the IC50 was greater than 20000 nM against DRB1*1201; greater than 20000 nM at DRB1*1302; 6120 nM at DRB1*1501; 734 nM against DRB4*0101; 7620 nM on DRB1*1101; greater than 20000 nM on DRB5*0101.

Take VDFIVNDNDYLTQAE [Peptide 90.0031]: the IC50 on DR1 (DRB1*0101) is 2830 nM; against DR7 (DRB1*0701) it was 7280 nM; against DRB1*0301, 42 nM; against DRB1*0405, greater than 20000 nM; against DRB1*0802 it was greater than 20000 nM; at DRB1*0901 it was greater than 20000 nM. Further, the IC50 was 17100 nM against DRB1*1201; 204 nM against DRB1*1302; greater than 20000 nM on DRB1*1501; 718 nM against DRB4*0101; greater than 20000 nM on DRB1*1101; greater than 20000 nM at DRB5*0101.

In the case of HKAIELQMALKGLAQ [Peptide 90.0004], the IC50 worked out at 2.1 nM on DR1 (DRB1*0101); 6.7 nM on DR4w4 (DRB1*0401); 32 nM at DRB1*0301; 3310 nM on DRB1*0405; 38 nM against DRB1*0802; 293 nM at DRB1*1201. The IC50 on DRB1*1501 is 6580 nM; against DRB4*0101 it was 1 nM; on DRB1*1101, 10 nM; at DRB5*0101 it was 57 nM.

As for LNTVKIPNTVSVSTG [Peptide 89.0178], the IC50 against DR1 (DRB1*0101) came to 51 nM; at DR4w4 (DRB1*0401) it was 824 nM; on DR7 (DRB1*0701), 5480 nM; at DRB1*0301 it was 65 nM; against DRB1*0405 it was 3020 nM; on DRB1*0802 it was 3690 nM. For the same compound, the IC50 against DRB1*0901 worked out at 1140 nM; against DRB1*1201, 361 nM; against DRB1*1501, 12700 nM; on DRB4*0101 it was 2580 nM; at DRB1*1101 it was 976 nM.

In the case of GERLEVDTELSPRLQ [Peptide 90.0048], the IC50 was greater than 20000 nM on DR1 (DRB1*0101); greater than 20000 nM on DR7 (DRB1*0701); 15 nM against DRB1*0301; greater than 20000 nM on DRB1*0405; greater than 20000 nM at DRB1*0802; greater than 20000 nM against DRB1*0901. For the same compound, the IC50 on DRB1*1201, at DRB1*1302, against DRB1*1501, at DRB4*0101, on DRB1*1101 and at DRB5*0101 was greater than 20000 nM each time.
